Common to all, as to assay type: in vivo
Data set [1] deals with cat fleas (Ctenocephalides felis). The data set can be described thus: whole plant or invertebrate. Particulars: 72 h, read-out: death rate. Here is the method: In 1 ml of acetone, 1 mg of the presently invented compound was dissolved to prepare a chemical solution having a concentration of 1000 ppm. The bottom surface and side surface of each glass container having an inner wall surface area of 25 cm^2 were coated with 250 µl of the chemical solution, and acetone was then volatilized to form a thin film of the compound on the inner wall of the glass container.
Into each of the treated glass containers, five cat fleas (Ctenocephalides felis) imagoes (mixed-sex) were released, and the glass containers were capped and accommodated in a thermostatic room at 25°C. Three days after the release, the number of dead flea individuals were examined, and the death rate was calculated from the same calculation formula as in Test Example 1.

The test system of data set [2] is diamondback moths (Plutella xylostella). The data set can be described thus: Insecticidal test for diamondback moths. The note with it: 500 ppm chemical solution, leaves soaked, third-instar larvae, six days, 25°C; for mortality at 500 µg/mL: Plutella xylostella, 144 h, read-out: death rate; for death rate: 8640 min. Here is the method: A 10% by mass emulsion of the presently invented compound prepared according to the above formulation example for an emulsion was diluted with water containing a spreader to prepare a chemical solution having a concentration of 500 ppm. Chinese olive leaves were soaked in the chemical solution for approximately 10 seconds. After the completion of the soaking operation, the Chinese olive leaves treated with the chemical solution were air-dried, and then put in dishes. Into each dish, five third-instar diamondback moths (Plutella xylostella) larvae were released, and the dishes were capped and accommodated in a thermostatic room at 25°C. […] The test was carried out in duplicate.

In data set [3] the test system is western flower thrips (Frankliniella occidentalis). Briefly: Insecticidal activity against western flower thrips. The note with it: 500 ppm chemical solution sprinkled (2.5 mg/cm^2), larvae on common bean leaf, after 2 days; for mortality at 500 µg/mL: Frankliniella occidentalis, 48 h, read-out: death rate. Here is the method: Wet filter paper was laid on each styrol cup having an inner diameter of 7 cm, and a common bean leaf cut into a 3 cm square was placed thereon, and inoculated with 20 western flower thrips (Frankliniella occidentalis) larvae. A 10% by mass emulsion of the presently invented compound prepared according to the above formulation example for an emulsion was diluted with water containing a spreader to prepare a chemical solution having a concentration of 500 ppm. For each styrol cup, 2.5 ml of the chemical solution prepared was sprinkled (2.5 mg/cm^2) with a rotary tower sprinkler. […] The test was carried out in duplicate.

Where only a bound is given, the exact number is not on record here.

For the compound `COc1ccc(-c2cc(C3CC(O)=C(C(=O)Nc4ccc(F)cc4)C(=O)N3)ccc2C(F)(F)F)cc1` (centres unmarked) [1-018], in data set [1], the mortality at 10 µg/cm2 is not below 50%. For the same compound, in data set [2], the mortality at 500 µg/mL is not below 90%.
`COc1ccc(-c2cc(C3CC(O)=C(C(=O)Nc4ccc(Cl)nc4)C(=O)N3)cnc2Cl)cn1` (centres unmarked) [2-017] gave a death rate in data set [2] not below 90%.
Same read-out and setting: in the case of `CC(=O)c1ccc(-c2cc(C3CC(O)=C(C(=O)Nc4ccc(Cl)cn4)C(=O)N3)cnc2Cl)cc1` (centres unmarked) [2-066] it was not below 90%.
In the case of `Cc1cncc(-c2cc(C3CC(O)=C(C(=O)Nc4cnccn4)C(=O)N3)cnc2Cl)c1` (centres unmarked) [2-148], the mortality at 10 µg/cm2 in data set [1] is not below 50%. In addition, in data set [2], the mortality at 500 µg/mL is not below 90%.
On to `O=C(Nc1ccccn1)C1=C(O)CC(c2cnc(Cl)c(-c3ccc(F)cc3)c2)NC1=O` (centres unmarked) [2-226], for which the mortality at 500 µg/mL in data set [3] and in data set [2] was not below 90% each time. The mortality at 10 µg/cm2 in data set [1] was not below 50%.
As for `O=C(Nc1ccc(F)cc1)C1=C(O)CC(c2cnc(Cl)c(-c3ccc(F)cc3)c2)NC1=O` (centres unmarked) [2-229], the mortality at 500 µg/mL in data set [3] and in data set [2] was not below 90% in each case. For the same compound, in data set [1], the mortality at 10 µg/cm2 was not below 50%.
The compound `O=C(Nc1ccc(C(F)(F)F)cn1)C1=C(O)CC(c2cnc(Cl)c(-c3ccc(F)cc3)c2)NC1=O` (centres unmarked) [2-230] gave a death rate in data set [3] not below 90%.
The compound `O=C(Nc1nccnn1)C1=C(O)CC(c2cnc(Cl)c(-c3ccc(F)cc3)c2)NC1=O` (centres unmarked) [2-237] showed a death rate in data set [2] not below 90%.
On to `O=C(Nc1nncs1)C1=C(O)CC(c2cnc(Cl)c(-c3ccc(F)cc3)c2)NC1=O` (centres unmarked) [2-239], for which the mortality at 500 µg/mL in data set [3] is not below 90%.
Regarding `O=C(Nc1ccc(O)cc1)C1=C(O)CC(c2cnc(Cl)c(-c3ccc(F)cc3)c2)NC1=O` (centres unmarked) [2-241], the death rate in data set [2] is not below 90%.
The same measure, in the same setting: in the case of `C#Cc1ccc(NC(=O)C2=C(O)CC(c3cnc(Cl)c(-c4ccc(F)cc4)c3)NC2=O)cc1` (centres unmarked) [2-243] it was not below 90%.
As to `COc1ccc(NC(=O)C2=C(O)CC(c3cnc(Cl)c(-c4cccc(C)c4)c3)NC2=O)cc1` (centres unmarked) [2-258], the death rate in data set [3] is on record as not below 90%.
Take `Cc1cccc(-c2cc(C3CC(O)=C(C(=O)Nc4nccnn4)C(=O)N3)cnc2Cl)c1` (centres unmarked) [2-270]: the mortality at 10 µg/cm2 in data set [1] was not below 50%.
Consider `Cc1cccc(-c2cc(C3CC(O)=C(C(=O)Nc4cccnc4F)C(=O)N3)cnc2Cl)c1` (centres unmarked) [2-275], for which, in data set [1], the mortality at 10 µg/cm2 was not below 50%.
Turning to `Cc1cccc(-c2cc(C3CC(O)=C(C(=O)Nc4ccc([N+](=O)[O-])cc4)C(=O)N3)cnc2Cl)c1` (centres unmarked) [2-279], the mortality at 500 µg/mL in data set [3] and in data set [2] was not below 90% each time. For the same compound, in data set [1], the mortality at 10 µg/cm2 is not below 50%.
As to `Cc1ccc(NC(=O)C2=C(O)CC(c3cnc(Cl)c(-c4cccc(C)c4)c3)NC2=O)cc1` (centres unmarked) [2-282], the mortality at 500 µg/mL in data set [3] and in data set [2] was not below 90% throughout. Moreover, the mortality at 10 µg/cm2 in data set [1] was not below 50%.
For the compound `CC(=O)c1ccc(NC(=O)C2=C(O)CC(c3cnc(Cl)c(-c4ccc(F)cc4)c3)NC2=O)cc1` (centres unmarked) [2-295], the death rate in data set [2] is not below 90%.
With `CC(C)(C)OC(=O)c1ccc(NC(=O)C2=C(O)CC(c3cnc(Cl)c(-c4ccc(F)cc4)c3)NC2=O)cc1` (centres unmarked) [2-296], the mortality at 500 µg/mL in data set [3] is not below 90%.
In turn, `O=C(Nc1ccc(F)cc1)C1=C(O)CC(c2nc(-c3ccc(C(F)(F)F)cc3)no2)NC1=O` (centres unmarked) [3-004] displayed a death rate in data set [2] not below 90%.
Still for that read-out and setting: in the case of `O=C(Nc1ccc(Cl)nc1)C1=C(O)CC(c2nc(-c3ccccc3F)no2)NC1=O` (centres unmarked) [3-019] it was not below 90%.
For the compound `O=C(Nc1ccc([N+](=O)[O-])c(Cl)c1)C1=C(O)CC(c2nc(-c3ccnc(F)c3)no2)NC1=O` (centres unmarked) [3-120], the death rate in data set [3] is given as not below 90%.
As to `O=C(Nc1cc(F)ccn1)C1=C(O)CC(c2nc(-c3c(F)cccc3Cl)no2)NC1=O` (centres unmarked) [3-143], in data set [2], the mortality at 500 µg/mL was not below 90%.
Take `O=C(Nc1cc(F)ccn1)C1=C(O)CC(c2nc(-c3ccncn3)no2)NC1=O` (centres unmarked) [3-212]: the mortality at 10 µg/cm2 in data set [1] is not below 50%. Besides, in data set [2], the mortality at 500 µg/mL was not below 90%.
As to `Cc1ccc(NC(=O)C2=C(O)CC(c3nc(-c4ccnc(F)c4)no3)NC2=O)cc1Cl` (centres unmarked) [3-267], in data set [3], the mortality at 500 µg/mL was not below 90%.

The record behind these values is EP4582413A1, “ARYLTETRAHYDROPYRIDINE COMPOUND AND PEST CONTROL AGENT” (priority 2022, dated 2024).
